According to ChEMBL document CHEMBL1201862, “PubChem BioAssay data set” (2004):
Active and inactive are the calls of the source. Unless noted, the rule behind the calls is not given here.

What was measured:
[1] = biological target: T1, Sphingosine 1-phosphate receptor 1 (Homo sapiens, UniProt P21453); assay: Fluorescence-based counterscreen assay for S1P4 agonists: Cell-based dose response high throughput screening assay to identify agonists of the Sphingosine 1-Phosphate Receptor 1 (S1P1). [Related pubchem assays (depositor defined):AID1509, AID1523, AID1801, AID463107, AID463118, AID463119, AID463122, AID463123, AID463129, AID463225, AID504400, AID504460]; assay type: functional
[2] = biological target: Sphingosine 1-phosphate receptor 4 (Homo sapiens, UniProt O95977); assay: Fluorescence dose response cell-based high throughput screening assay for agonists of the Sphingosine 1-Phosphate Receptor 4 (S1P4). [Related pubchem assays: 1509 (Primary screen.), 1523 (Confirmation screen in triplicates.)]; assay type: functional
[3] = biological target: Sphingosine 1-phosphate receptor 5 (Homo sapiens, UniProt Q9H228); assay: (§1) Late-stage fluorescence-based dose-response cell-based assay to identify agonists of the Sphingosine 1-Phosphate Receptor 4 (S1P4): Sphingosine 1-Phosphate Receptor 5 (S1P5) counterscreen assay. [Related pubchem assays (depositor defined):AID1509, AID1523, AID1563, AID1686, AID1701, AID1801, AID463107, AID463225, AID504400]; assay type: functional
[4] = biological target: T1, Sphingosine 1-phosphate receptor 1; assay: as §1, with “1 (S1P1)” for “5 (S1P5)”; assay type: functional
[5] = biological target: Sphingosine 1-phosphate receptor 2 (Homo sapiens, UniProt O95136); assay: as §1, with “2 (S1P2)” for “5 (S1P5)”; assay type: functional
[6] = biological target: Sphingosine 1-phosphate receptor 3 (Homo sapiens, UniProt Q99500); assay: as §1, with “3 (S1P3)” for “5 (S1P5)”; assay type: functional
DLD-1 [7] = assay: reduction of KLF5 protein levels, late-stage follow-up, orthogonal assay for KLF5 inhibitor project, western blot, chemiluminescence, DLD-1 cells, titration (AID 485336); assay type: functional, cell-based; conditions: Homo sapiens
[8] = HEp-2 cell cytotoxicity, dose response, cytotoxicity control for RSV inhibitor project, HTS (AID 2410); assay type: functional; conditions: human respiratory syncytial virus
[9] = Luminescence-based counterscreen assay for KLF5 inhibitors: dose response cell-based high throughput screening assay to identify cytotoxic compounds using the IEC-6 intestinal epithelial cell line. [Related pubchem assays: 1700 (Primary screen.), 1834 (Confirmation screen.), 1858 (Summary AID.), 1905 (Counterscreen.)]; assay type: functional
DLD-1 [10] = assay: cytotoxicity in DLD-1 colorectal cells, late-stage follow-up, cytotoxicity control for KLF5 inhibitor project, cell-based, luminescence, round 1 (AID 485338); assay type: functional; conditions: Homo sapiens
[11] = Luminescence Cell-Based Dose Retest to Confirm Inhibitors of Cancer Stem Cells. [Related pubchem assays (depositor defined):AID2717, AID2721]; assay type: functional; conditions: Homo sapiens
[12] = test system: Streptococcus sp. 'group A'; assay: growth inhibition of control SK(-) GAS strain, dose response, counter-screen for streptokinase expression inhibitor project, luminescence, kanamycin, BacTiterGlo, confirmation (AID 1900); assay type: functional, organism-based
Streptococcus = assay: Group A Streptococcus viability loss, dose response, counter-screen for streptokinase expression inhibitor project, luminescence, BacTiterGlo (AID 1915); assay type: functional, organism-based;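 also: potency for reduction of bacterial viability or growth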
Coagulation factor XII = biological target: T2, Coagulation factor XII (Homo sapiens, UniProt P00748); assay: Factor XIIa Dose Response Confirmation from Single Well HTS. [Related pubchem assays (depositor defined):AID701]; assay type: functional
T2 sequence (P00748 whole entry): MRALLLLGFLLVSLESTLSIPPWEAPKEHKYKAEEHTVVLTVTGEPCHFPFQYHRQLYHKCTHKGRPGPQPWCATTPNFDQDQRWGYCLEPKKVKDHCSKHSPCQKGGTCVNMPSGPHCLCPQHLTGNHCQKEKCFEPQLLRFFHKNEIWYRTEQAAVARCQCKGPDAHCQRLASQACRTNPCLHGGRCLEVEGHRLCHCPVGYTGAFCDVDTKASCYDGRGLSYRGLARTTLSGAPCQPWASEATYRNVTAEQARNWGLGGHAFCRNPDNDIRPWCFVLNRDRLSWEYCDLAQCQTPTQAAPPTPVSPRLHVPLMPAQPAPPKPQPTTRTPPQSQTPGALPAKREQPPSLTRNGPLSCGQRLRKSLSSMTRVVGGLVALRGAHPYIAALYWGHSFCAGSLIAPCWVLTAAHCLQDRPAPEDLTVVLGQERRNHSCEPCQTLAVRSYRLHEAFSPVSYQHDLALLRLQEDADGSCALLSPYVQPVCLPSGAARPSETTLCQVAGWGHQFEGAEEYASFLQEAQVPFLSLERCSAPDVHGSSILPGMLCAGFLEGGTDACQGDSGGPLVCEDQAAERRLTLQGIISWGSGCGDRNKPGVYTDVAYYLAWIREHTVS

[13] = biological target: T3, Intestinal-type alkaline phosphatase (Homo sapiens, UniProt P09923); assay: Dose Response confirmation of uHTS hits from a small molecule inhibitors of human intestinal alkaline phosphatase via a luminescent assay. [Related pubchem assays (depositor defined):AID2544, AID2574]; assay type: functional
[14] = biological target: T3, Intestinal-type alkaline phosphatase; assay: human intestinal alkaline phosphatase activators, dose response, biochemical, luminescence, uHTS hits (AID 463120); assay type: functional
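For AC50 in this document: cells exposed to compound for roughly 70 hours or longer before luminescence read.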

T3 sequence (P09923 whole entry): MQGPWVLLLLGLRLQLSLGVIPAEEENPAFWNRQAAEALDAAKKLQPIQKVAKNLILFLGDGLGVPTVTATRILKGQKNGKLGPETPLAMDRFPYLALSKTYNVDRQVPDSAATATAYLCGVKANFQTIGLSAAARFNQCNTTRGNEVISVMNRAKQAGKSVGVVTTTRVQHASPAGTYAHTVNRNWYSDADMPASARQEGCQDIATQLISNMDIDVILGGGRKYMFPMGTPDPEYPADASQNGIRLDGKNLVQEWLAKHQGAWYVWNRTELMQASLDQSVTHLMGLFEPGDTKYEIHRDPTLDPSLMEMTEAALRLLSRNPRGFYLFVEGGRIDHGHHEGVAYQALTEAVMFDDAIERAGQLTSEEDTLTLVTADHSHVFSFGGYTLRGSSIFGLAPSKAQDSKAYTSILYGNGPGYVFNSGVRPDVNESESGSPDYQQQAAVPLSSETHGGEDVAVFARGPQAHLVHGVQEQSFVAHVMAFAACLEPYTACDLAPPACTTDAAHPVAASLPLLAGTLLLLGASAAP
T1 sequence (P21453 whole entry): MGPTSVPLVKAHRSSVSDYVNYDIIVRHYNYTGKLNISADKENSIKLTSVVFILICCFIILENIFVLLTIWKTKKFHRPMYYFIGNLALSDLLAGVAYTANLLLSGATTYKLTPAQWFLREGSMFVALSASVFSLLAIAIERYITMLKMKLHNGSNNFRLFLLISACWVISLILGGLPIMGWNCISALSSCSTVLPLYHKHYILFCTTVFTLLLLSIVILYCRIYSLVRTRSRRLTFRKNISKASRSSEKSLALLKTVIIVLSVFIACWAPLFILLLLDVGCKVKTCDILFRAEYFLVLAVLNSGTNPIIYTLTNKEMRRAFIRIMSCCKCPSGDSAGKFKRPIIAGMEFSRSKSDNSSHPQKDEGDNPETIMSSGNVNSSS
Chain of Sphingosine 1-phosphate receptor 4 (O95977 whole entry): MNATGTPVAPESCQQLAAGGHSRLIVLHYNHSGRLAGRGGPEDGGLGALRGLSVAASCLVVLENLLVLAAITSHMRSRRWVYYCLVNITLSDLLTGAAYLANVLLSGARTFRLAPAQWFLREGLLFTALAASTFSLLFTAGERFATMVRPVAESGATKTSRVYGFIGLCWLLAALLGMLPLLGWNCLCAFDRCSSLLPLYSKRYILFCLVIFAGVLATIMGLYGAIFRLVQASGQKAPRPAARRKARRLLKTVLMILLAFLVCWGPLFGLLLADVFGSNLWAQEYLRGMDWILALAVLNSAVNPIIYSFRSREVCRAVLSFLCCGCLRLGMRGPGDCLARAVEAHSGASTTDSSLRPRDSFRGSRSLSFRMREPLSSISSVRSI
Chain of Sphingosine 1-phosphate receptor 5 (Q9H228 whole entry): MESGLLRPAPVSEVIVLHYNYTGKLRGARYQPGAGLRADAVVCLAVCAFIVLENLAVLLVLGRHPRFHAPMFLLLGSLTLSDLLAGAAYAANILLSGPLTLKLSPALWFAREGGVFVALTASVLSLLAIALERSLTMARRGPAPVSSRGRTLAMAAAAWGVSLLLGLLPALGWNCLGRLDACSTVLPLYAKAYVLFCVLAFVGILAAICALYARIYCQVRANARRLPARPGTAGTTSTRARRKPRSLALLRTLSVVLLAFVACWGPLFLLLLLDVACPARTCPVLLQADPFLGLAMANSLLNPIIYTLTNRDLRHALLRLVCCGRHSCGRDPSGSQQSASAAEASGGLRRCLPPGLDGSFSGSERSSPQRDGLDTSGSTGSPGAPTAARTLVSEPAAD
Chain of Sphingosine 1-phosphate receptor 3 (Q99500 whole entry): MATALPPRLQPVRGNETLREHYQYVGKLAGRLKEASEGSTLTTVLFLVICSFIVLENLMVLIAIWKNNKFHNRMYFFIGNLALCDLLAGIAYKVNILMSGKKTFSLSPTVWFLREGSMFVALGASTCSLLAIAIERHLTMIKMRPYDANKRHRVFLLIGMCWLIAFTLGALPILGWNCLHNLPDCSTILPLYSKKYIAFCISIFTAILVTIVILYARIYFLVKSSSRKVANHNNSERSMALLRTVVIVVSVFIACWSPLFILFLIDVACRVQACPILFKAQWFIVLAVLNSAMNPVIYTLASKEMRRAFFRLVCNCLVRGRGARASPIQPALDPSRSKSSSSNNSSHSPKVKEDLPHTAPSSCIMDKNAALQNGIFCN
Chain of Sphingosine 1-phosphate receptor 2 (O95136 whole entry): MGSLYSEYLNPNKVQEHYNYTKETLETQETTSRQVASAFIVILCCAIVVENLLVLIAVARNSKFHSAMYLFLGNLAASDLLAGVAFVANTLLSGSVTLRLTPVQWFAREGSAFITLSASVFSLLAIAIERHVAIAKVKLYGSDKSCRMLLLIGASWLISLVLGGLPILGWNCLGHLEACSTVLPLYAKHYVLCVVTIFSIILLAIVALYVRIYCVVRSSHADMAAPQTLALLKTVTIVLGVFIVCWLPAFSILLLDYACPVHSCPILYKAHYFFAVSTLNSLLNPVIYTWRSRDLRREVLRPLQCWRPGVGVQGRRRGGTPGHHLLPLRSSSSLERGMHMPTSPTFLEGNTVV

## Cc1ccc(OCCOc2ccc(Cl)cc2Cl)c([N+](=O)[O-])n1
[1]
  EC50: > 49.8 µM (inactive)
[2]
  EC50: 0.529 µM (active)
[3]
  EC50: > 50 µM (inactive)
[4]
  EC50: > 50 µM (inactive)
[5]
  EC50: > 50 µM (inactive)
[6]
  EC50: > 50 µM (inactive)

## CN(C(=O)COC(=O)/C=C/c1cccc([N+](=O)[O-])c1)C1CCS(=O)(=O)C1 (stereo unspecified)
DLD-1 [7]
  IC50: 2.25 µM (active)
[8]
  CC50: 11.4 µM (active)
[9]
  IC50: 32.3 µM (not active)
DLD-1 [10]
  IC50: 3.57 µM (active)
[11]
  AC50: 1.43 µM (active)

## O=C(Oc1ccc(Cl)c2cccnc12)c1ccco1
[12]
  EC50: 3.93 µM (active)
Streptococcus
  EC50: 11.6 µM (active)
Coagulation factor XII
  IC50: 21.6 µM (active)

## COc1cccc(-c2nc(CS(=O)(=O)CC(=O)Nc3cc(OC)ccc3OC)c(C)o2)c1
[13]
  IC50: > 100 µM (inactive)
[14]
  EC50: > 100 µM (inactive)
